# Measured values published in patent US12472263B2, “Ophthalmic formulation” (PANOPTES PHARMA GES.M.B.H., priority 2018, dated 2025).
# Structures can show the parent of a compound that is named as a salt. Where two headings read alike, the source gives them in different places.
# Columns and labels:
# [1] = biological target: T1, HSA (human serum albumin) (Homo sapiens, UniProt P02768); test: Binding of different pharmaceutically active compounds to albumin, RED assay; type: in vitro ADME; details: 5 h, pH 7.4
# Method: (§1) For analysis of binding of different pharmaceutically active compounds to HSA (human serum albumin) a rapid equilibrium dialysis (RED) assay from Thermo Scientific™ was conducted. Different pharmaceutically active compounds (in saturated solutions as prepared in Example 1) were applied to the donor side of the device. PBS pH 7.4 was used as acceptor medium. The time required to achieve equilibrium in the dialysis was determined to 5 hours. The formulations were incubated at 23° C. at 300 rpm. The unbound fraction was allowed to permeate through the dialysis membrane into the acceptor buffer chamber. After 5 hours equilibration time, the unbound fraction was determined by analyzing the amount of the active compound in each compartment via LC/MS.
# The amount of free compound was calculated according to the equation:
# The amount of bound compound is calculated as % bound=100−% free
# [2] = Thermodynamic solubility in PBS pH 7.4 and in 5% HSA in PBS; type: physicochemical; details: for solubility thermodynamic: thermodynamic from solid; for Increase in solubility: from PBS to 5% HSA in PBS
# Method: The process was initiated by adding 1 mL of defined buffer to about 1 mg of the solid compound. The solutions were mixed for at least 15 hours. If there was no undissolved substance in the solution visible, an additional portion of the solid compound was added and the solution was further mixed for at least 15 hours. This step was repeated until a saturated solution in equilibrium was achieved; excess solid was clearly visible. The total mixing time until equilibrium should exceed 40 hours. After reaching the equilibrium, the solutions were centrifuged for 10 minutes at 14,000 rpm.
# [3] = system: uveitis; details: cited from earlier work
# [4] = Aqueous solubility in phosphate buffer pH 7.4, without and with 5% albumin; type: physicochemical; details: thermodynamic from solid
# Method: As used herein, “solubility in aqueous solution of at least X mg/mL” refers to thermodynamic solubility of a compound in an aqueous 50 mM phosphate buffer or phosphate buffered saline (PBS) solution at pH 7.4 at least X mg/mL. PP-001 has a solubility of 0.8 mg/mL in an aqueous phosphate buffer solution at pH 7.4. However, if the aqueous buffer solution comprises 5% albumin PP-001 has solubility of at least 5 mg/mL.
# [5] = PK study in rabbits after topical ocular administration; type: in vivo, New Zealand White rabbits
# Method: To confirm that PP-001/albumin formulations deliver sufficient PP-001 to target tissues (i.e. conjunctiva and cornea), a pharmacokinetic study was performed in New Zealand White rabbits.
# 10 female animals of ca. 3 months age were dosed one drop (35 μL drop size) of the formulation 1 (3 mg/ml PP-001) in both eyes at time point 0. Animals were sacrificed 5 or 30 minutes or 2, 4, or 12 hours after dosing and ocular tissues and plasma were collected. PP-001 concentration in plasma and tissues were determined by a validated HPLC-MS analytical method.
# [6] = biological target: T1, HSA (human serum albumin); test: Binding of PP-001 to albumin, rapid equilibrium dialysis (RED) assay; type: in vitro ADME
# Method: as §1, with “PP-001” for “different pharmaceutically active compounds”, “PP-001 formulations” for “pharmaceutically active compounds (in saturated solutions as prepared in Example 1)”, “device and 50 mM phosphate buffer” for “device. PBS”, “time” for “time,”, “PP-001” for “the active compound”, “HPLC/DAD.” for “LC/MS.”
# (§2) To investigate nonspecific binding of PP-001 to the RED Device Inserts, a solution of 0.05 mg/mL PP-001 in 50 mM phosphate buffer pH 7.4 was used as a control sample. PP-001 concentration in the acceptor compartment was >82% of the concentration in the donor compartment. Only minor non-specific binding of PP-001 to the RED device was determined.
# (§3) The amount of free PP-001 was calculated according to the equation:
# (§4) The amount of bound PP-001 is calculated as % bound=100−% free
# [7] = biological target: human serum albumin (Homo sapiens, UniProt P02768); test: as above; type: in vitro ADME; details: PP-001/human serum albumin formulation, pH 7.4; formulation dosed in the rabbit PK study
# Method: as §1, with “PP-001” for “different pharmaceutically active compounds”, “PP-001 formulations” for “pharmaceutically active compounds (in saturated solutions as prepared in Example 1)”, “device and 50 mM phosphate buffer” for “device. PBS”, “time” for “time,”, “PP-001” for “the active compound”, “HPLC/DAD.” for “LC/MS.”
# as §2, §3, §4
# [8] = aqueous buffer, PBS pH 7.4, saturated, LC/MS, read-out: Thermodynamic solubility in PBS pH 7.4
# [9] = plasma or biological fluid, 5% HSA in PBS pH 7.4, saturated, LC/MS, read-out: Thermodynamic solubility in 5% HSA in PBS pH 7.4
# T1 sequence (P02768 25-609): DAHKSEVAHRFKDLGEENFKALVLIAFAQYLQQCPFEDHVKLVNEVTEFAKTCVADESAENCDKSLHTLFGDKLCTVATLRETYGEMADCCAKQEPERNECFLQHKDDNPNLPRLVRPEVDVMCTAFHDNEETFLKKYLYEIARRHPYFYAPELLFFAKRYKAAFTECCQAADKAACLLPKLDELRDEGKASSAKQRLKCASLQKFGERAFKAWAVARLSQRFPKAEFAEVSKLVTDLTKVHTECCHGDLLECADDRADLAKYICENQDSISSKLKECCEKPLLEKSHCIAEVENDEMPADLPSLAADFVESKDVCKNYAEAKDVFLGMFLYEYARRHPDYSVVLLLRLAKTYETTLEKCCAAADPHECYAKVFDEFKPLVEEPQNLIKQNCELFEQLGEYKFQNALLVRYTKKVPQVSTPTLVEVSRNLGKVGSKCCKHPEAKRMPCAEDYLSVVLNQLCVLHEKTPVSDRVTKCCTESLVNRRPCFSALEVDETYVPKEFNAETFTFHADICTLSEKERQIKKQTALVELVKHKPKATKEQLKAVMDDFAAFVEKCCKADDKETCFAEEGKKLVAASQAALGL
# Sequence of human serum albumin (P02768 25-609): as above
Molecule,% bound ([1]; isolated protein) [%],"solubility thermodynamic [2, 8] [µg/mL]",Increase in solubility [2],"solubility thermodynamic [2, 9] [µg/mL]",further results
CN1CCCC(n2nc(Cc3ccc(Cl)cc3)c3ccccc3c2=O)CC1 (stereo not drawn) [Azelastine HCl],80.9,421,96%,827,
CCNC(=O)CCC/C=C\C[C@@H]1[C@@H](/C=C/[C@@H](O)CCc2ccccc2)[C@H](O)C[C@@H]1O [Bimatoprost],77.6,1230,144%,3010,
CCN[C@H]1CN(CCCOC)S(=O)(=O)c2sc(S(N)(=O)=O)cc21 [Brinzolamide],70.3,273,42%,387,
CNCC(O)c1ccc(OC(=O)C(C)(C)C)c(OC(=O)C(C)(C)C)c1 (stereo not drawn) [Dipivefrin HCl],64.8,2340,218%,7440,
CC(=O)O[C@H]1C[C@@]2(C)[C@@H](C[C@@H](O)[C@H]3[C@@]4(C)CC[C@@H](O)[C@@H](C)[C@@H]4CC[C@@]32C)/C1=C(\CCC=C(C)C)C(=O)O [Fusidic Acid],95.7,483,195%,1420,
C[C@@H]1CN([C@H]2CC[C@](C#N)(c3ccc(F)cc3)CC2)CC[C@]1(C(=O)O)c1ccccc1 [Levocabastine HCl],75.4,3,,83,"Increase in solubility ([2]; HCl): 2,333%^; Increase in solubility ([2]; listed as levocabastine HCl, HCl): 2,333%"
NC(=O)Cc1cccc(C(=O)c2ccccc2)c1N [Nepafenac],92.1,9,619%,64,
"O=C(Nc1c(F)c(F)c(-c2cccc(OC(F)(F)F)c2)c(F)c1F)c1ccsc1C(=O)O [PP-001, 3-(2,3,5,6-tetrafluoro-3′-trifluoromethoxy-biphenyl-4-ylcarbamoyl)-thiophene-2-carboxylic acid]",99.9,48,,2910,"relapses of experimental autoimmune uveitis ([3]; therapeutic approach): prevents relapses; clinical and histological symptoms of uveitis ([3]; two different rat models for uveitis): completely ameliorates clinical and histological symptoms; solubility ([4]; aqueous buffer with 5% albumin, aqueous with cosolvent or surfactant or cyclodextrin, buffer pH 7.4 with 5% albumin, read-out: solubility in aqueous buffer solution comprising 5% albumin): ≥ 5000 µg/mL; solubility ([4]; aqueous phosphate buffer, aqueous buffer, phosphate buffer pH 7.4, read-out: aqueous solubility in phosphate buffer pH 7.4): 800 µg/mL; Cmax ([5]; female, New Zealand White, rabbit, plasma, topical, 35 μL drop of 3 mg/ml per eye, one 35 μL drop of formulation 1 (3 mg/ml PP-001) in both eyes): < 9 ng/mL; absorption of PP-001 by ocular tissues (conjunctiva, cornea) ([5]; one 35 μL drop of formulation 1 (3 mg/ml PP-001) in both eyes): substantial amounts of PP-001 are absorbed by ocular tissues; persistence in the cornea ([5]; one 35 μL drop of formulation 1 (3 mg/ml PP-001), up to 12 hours after dosing): highly persistent in the cornea; PP-001 concentration in the acceptor compartment as % of the donor compartment (nonspecific binding control) ([6]; 0.05 mg/mL PP-001 in 50 mM phosphate buffer pH 7.4, no albumin): > 82%; binding of PP-001 to albumin (in words) ([6]; even at high PP-001 concentrations): nearly completely bound to albumin; fraction unbound at 5 h, 3 mg/ml [7]: < 0.05; % bound [1]: ~100%"
CC(=O)OCC(=O)[C@@]1(O)CC[C@H]2[C@@H]3CCC4=CC(=O)C=C[C@]4(C)[C@H]3[C@@H](O)C[C@@]21C [Prednisolone acetate],94.3,,,,
Netarsudil mesylate,,,">10,000%",,"Thermodynamic solubility in 5% HSA in PBS pH 7.4 ([2]; 5% HSA in PBS pH 7.4, saturated, LC/MS): 0.140 mg/mL; Thermodynamic solubility in PBS pH 7.4 ([2]; PBS pH 7.4, saturated, LC/MS): <0.000051 mg/mL; Increase in solubility ([2]; listed as netarsudil mesylate): > 274,763%"
